pIC50: −log10 of the molar value.
What was measured:
[1] = tested on: Epidermal growth factor receptor (Homo sapiens), P00533 [L858R]; assay: Inhibition of EGFR L858R (unknown origin) at 1 uM by Eurofins kinase profiler method relative to control
[2] = target: T1, Proto-oncogene tyrosine-protein kinase ROS (Homo sapiens, UniProt P08922); assay: Inhibition of ROS (unknown origin) by Eurofins kinase profiler method
[3] = target: Insulin-like growth factor 1 receptor (Homo sapiens) (UniProt P08069); assay: Inhibition of IGF-1R (unknown origin) at 1 uM by Eurofins kinase profiler method relative to control
NCI-H3122 [4] = assay: Antiproliferative activity against human NCI-H3122 cells transfected with siRNF126 assessed as cell growth inhibition measured after 72 hrs by CellTiter-Glo assay; format: functional
[5] = target: Epidermal growth factor receptor (Homo sapiens, UniProt P00533, L858R); assay: Inhibition of EGFR L858R (unknown origin) by Eurofins kinase profiler method
[6] = target: T1, Proto-oncogene tyrosine-protein kinase ROS; assay: Inhibition of ROS (unknown origin) at 1 uM by Eurofins kinase profiler method relative to control
NCI-H3122 [7] = assay: cells; conditions: Homo sapiens, NCI-H3122, 72 h
Description: Antiproliferative activity against human NCI-H3122 cells expressing EML4-ALK fusion assessed as cell growth inhibition incubated for 72 hrs by CellTiter-Glo assay

[8] = target: Insulin receptor (Homo sapiens) (UniProt P06213); assay: Inhibition of IR (unknown origin) at 1 uM by Eurofins kinase profiler method relative to control
NCI-H3122 [9] = assay: Induction of EML4-ALK degradation in human NCI-H3122 cells assessed as reduction in ALK level by measuring fold change at 100 nM measured after 24 hrs by Western blot analysis (reference value: […]); format: cell-based

T1 sequence (P08922 whole entry): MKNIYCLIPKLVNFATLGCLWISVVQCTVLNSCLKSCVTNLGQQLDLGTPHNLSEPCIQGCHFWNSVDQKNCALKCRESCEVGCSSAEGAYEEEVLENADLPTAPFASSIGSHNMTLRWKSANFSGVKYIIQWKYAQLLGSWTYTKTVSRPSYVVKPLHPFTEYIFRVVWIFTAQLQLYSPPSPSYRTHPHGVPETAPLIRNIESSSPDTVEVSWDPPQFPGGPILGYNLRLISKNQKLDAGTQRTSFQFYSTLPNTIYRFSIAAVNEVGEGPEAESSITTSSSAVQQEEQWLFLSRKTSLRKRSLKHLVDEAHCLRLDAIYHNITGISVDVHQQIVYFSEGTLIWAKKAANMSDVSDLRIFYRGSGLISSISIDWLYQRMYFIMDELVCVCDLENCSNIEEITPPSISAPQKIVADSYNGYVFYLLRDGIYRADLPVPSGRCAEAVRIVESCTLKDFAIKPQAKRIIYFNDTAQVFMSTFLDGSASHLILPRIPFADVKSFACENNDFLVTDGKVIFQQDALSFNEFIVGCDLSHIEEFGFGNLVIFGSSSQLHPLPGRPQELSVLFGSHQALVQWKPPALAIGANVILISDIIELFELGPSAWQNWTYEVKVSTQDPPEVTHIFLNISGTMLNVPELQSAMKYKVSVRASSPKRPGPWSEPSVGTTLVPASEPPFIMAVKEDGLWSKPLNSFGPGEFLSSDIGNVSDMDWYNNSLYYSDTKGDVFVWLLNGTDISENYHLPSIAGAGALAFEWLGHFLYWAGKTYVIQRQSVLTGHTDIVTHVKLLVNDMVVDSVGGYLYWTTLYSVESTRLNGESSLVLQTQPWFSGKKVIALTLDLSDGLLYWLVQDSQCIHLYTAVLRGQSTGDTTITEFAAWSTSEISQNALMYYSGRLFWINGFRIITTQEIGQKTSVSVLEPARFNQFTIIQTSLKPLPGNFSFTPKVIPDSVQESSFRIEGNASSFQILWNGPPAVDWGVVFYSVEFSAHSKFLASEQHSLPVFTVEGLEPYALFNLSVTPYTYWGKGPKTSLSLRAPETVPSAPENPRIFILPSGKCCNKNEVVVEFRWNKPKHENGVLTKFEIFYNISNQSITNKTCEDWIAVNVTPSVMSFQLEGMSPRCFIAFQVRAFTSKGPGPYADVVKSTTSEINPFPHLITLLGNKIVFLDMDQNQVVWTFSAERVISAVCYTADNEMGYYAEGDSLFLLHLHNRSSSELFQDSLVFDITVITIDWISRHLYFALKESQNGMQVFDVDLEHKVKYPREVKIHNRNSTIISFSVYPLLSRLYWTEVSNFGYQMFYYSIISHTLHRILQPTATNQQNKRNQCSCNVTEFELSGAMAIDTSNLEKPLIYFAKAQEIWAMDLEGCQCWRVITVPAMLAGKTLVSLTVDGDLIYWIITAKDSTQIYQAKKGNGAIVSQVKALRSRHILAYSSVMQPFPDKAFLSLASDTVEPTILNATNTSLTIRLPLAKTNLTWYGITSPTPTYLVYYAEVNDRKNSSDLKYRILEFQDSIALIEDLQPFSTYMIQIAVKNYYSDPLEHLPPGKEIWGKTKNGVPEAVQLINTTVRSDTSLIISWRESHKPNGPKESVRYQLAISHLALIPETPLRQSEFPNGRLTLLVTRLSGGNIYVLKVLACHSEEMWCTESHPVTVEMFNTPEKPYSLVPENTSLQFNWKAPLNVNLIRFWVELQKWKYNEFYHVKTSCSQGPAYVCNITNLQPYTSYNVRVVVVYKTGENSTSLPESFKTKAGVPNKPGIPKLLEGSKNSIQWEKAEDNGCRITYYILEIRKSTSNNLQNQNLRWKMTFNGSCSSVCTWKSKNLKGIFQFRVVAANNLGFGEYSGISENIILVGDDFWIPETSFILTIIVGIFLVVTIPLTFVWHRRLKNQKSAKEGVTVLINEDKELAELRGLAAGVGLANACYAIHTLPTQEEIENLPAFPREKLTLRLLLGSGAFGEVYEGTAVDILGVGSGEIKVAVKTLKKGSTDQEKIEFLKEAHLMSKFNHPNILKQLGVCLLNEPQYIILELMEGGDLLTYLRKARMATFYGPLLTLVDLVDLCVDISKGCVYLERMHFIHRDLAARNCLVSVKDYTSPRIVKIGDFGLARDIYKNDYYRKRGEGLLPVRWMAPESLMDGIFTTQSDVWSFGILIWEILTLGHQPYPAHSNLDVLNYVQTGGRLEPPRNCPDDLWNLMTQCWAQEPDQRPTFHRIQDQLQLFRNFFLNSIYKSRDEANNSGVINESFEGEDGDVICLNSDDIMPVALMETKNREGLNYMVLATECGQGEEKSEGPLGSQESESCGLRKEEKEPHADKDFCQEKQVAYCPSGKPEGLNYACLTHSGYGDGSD
Chain of Epidermal growth factor receptor (P00533 25-1210 L858R limits assumed): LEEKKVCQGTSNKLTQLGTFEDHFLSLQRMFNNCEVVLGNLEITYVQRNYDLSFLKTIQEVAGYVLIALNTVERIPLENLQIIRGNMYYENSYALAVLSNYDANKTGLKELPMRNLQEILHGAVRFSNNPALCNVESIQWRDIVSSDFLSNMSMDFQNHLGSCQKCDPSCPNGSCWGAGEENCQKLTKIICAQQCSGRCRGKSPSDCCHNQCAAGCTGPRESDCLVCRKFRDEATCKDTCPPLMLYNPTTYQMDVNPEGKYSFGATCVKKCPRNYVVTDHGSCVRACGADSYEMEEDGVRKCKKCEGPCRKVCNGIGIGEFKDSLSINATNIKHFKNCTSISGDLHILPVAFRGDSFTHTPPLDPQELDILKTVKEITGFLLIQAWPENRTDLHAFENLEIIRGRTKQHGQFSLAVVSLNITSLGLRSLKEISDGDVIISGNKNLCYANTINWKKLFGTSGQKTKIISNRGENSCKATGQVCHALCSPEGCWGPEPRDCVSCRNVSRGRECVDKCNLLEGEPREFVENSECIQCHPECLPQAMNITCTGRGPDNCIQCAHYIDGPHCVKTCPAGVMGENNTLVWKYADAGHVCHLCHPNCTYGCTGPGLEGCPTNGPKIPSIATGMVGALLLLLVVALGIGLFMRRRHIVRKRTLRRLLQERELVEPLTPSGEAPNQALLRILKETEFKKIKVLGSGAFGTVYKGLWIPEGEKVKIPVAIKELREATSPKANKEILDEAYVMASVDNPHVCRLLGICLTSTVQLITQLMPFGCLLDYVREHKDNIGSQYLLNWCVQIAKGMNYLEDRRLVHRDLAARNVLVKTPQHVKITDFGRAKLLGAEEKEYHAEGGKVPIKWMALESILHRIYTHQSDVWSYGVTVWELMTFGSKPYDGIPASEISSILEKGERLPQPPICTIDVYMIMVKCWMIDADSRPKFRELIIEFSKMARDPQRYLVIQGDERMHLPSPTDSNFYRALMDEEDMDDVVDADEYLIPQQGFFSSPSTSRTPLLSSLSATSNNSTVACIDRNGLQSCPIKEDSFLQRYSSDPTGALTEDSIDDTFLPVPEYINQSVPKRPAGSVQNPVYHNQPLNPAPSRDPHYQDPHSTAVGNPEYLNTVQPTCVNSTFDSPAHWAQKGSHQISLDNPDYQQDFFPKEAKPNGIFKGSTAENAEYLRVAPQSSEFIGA
Chain of Epidermal growth factor receptor (Homo sapiens), P00533 [L858R] (P00533 whole entry L858R): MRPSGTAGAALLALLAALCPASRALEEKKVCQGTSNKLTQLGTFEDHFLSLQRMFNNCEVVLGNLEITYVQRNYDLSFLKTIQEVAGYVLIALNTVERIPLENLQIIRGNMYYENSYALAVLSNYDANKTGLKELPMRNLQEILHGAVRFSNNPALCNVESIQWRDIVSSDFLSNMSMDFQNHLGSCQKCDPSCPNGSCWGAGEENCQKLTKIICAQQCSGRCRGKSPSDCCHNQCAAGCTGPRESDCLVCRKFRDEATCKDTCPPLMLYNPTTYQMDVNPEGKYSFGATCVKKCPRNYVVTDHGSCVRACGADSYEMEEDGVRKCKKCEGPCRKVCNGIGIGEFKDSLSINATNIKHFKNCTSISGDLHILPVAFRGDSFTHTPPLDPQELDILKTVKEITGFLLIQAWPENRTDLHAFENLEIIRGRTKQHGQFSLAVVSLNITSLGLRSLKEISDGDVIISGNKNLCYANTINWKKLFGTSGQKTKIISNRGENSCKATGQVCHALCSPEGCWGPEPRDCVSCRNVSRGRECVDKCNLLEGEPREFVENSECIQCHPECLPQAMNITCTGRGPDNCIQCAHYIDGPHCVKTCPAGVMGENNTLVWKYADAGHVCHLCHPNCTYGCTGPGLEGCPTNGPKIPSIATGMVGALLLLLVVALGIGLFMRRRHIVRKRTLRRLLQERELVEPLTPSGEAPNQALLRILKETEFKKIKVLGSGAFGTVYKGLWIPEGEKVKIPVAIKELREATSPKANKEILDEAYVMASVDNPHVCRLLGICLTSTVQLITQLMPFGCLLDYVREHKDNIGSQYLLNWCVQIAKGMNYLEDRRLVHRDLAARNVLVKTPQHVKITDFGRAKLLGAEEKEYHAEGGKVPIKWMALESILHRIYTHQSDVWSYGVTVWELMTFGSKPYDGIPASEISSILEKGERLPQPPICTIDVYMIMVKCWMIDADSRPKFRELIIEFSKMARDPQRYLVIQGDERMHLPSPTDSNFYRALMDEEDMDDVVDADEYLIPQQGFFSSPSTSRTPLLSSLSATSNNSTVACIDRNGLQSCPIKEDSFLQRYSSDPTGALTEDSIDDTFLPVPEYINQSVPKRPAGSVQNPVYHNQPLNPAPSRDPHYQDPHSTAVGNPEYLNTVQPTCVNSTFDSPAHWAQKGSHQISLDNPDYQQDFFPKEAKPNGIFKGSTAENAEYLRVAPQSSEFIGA

| SMILES | GI50 (NCI-H3122 [7]) [nM] | other results |
| --- | --- | --- |
| COc1ccc(C(=O)/C=C/C(=O)N2CCN(C3CCN(c4ccc(Nc5ncc(Cl)c(Nc6ccccc6P(C)(C)=O)n5)c(OC)c4)CC3)CC2)cc1 | 2 | inhibition [1]: 82%; pIC50 [2]: 6.73; inhibition [3]: 44%; GI50 (NCI-H3122 [4]): 2 nM; pIC50 [5]: 7.01; inhibition [6]: 73%; inhibition [8]: 48% |
| COc1ccc(C(=O)CCC(=O)N2CCN(C3CCN(c4ccc(Nc5ncc(Cl)c(Nc6ccccc6P(C)(C)=O)n5)c(OC)c4)CC3)CC2)cc1 | 66 | GI50 (NCI-H3122 [4]): 111 nM |
| CCc1cc2c(cc1N1CCC(N3CCOCC3)CC1)C(C)(C)c1[nH]c3cc(C#N)ccc3c1C2=O [ALECTINIB] | 23 | – |
| Cc1cc(Nc2ncc(Cl)c(Nc3ccccc3S(=O)(=O)C(C)C)n2)c(OC(C)C)cc1C1CCNCC1 [CERITINIB] | 23 | – |
| COc1ccc(C(=O)CCC(=O)N2CCC(c3cc(OC(C)C)c(Nc4ncc(Cl)c(Nc5ccccc5S(=O)(=O)C(C)C)n4)cc3C)CC2)cc1 | 747 | – |
| CCc1cc2c(cc1N1CCC(N3CCN(C(=O)CCC(=O)c4ccc(OC)cc4)CC3)CC1)C(C)(C)c1[nH]c3cc(C#N)ccc3c1C2=O | > 5000 | – |
| COc1ccc(C(=O)/C=C/C(=O)N2CCC(n3cc(-c4cnc(N)c(O[C@H](C)c5c(Cl)ccc(F)c5Cl)c4)cn3)CC2)cc1 | 56 | – |
| COc1cc(N2CCC(N3CCN(C)CC3)CC2)ccc1Nc1ncc(Cl)c(Nc2ccccc2P(C)(C)=O)n1 [BRIGATINIB] | 35 | GI50 (NCI-H3122 [4]): 43 nM |
| CCc1cc2c(cc1N1CCC(N3CCN(C(=O)/C=C/C(=O)c4ccc(OC)cc4)CC3)CC1)C(C)(C)c1[nH]c3cc(C#N)ccc3c1C2=O | 88 | – |
| COc1ccc(C(=O)CCC(=O)N2CCC(n3cc(-c4cnc(N)c(O[C@H](C)c5c(Cl)ccc(F)c5Cl)c4)cn3)CC2)cc1 | 1100 | – |
| COc1ccc(C(=O)/C=C/C(=O)N2CCC(c3cc(OC(C)C)c(Nc4ncc(Cl)c(Nc5ccccc5S(=O)(=O)C(C)C)n4)cc3C)CC2)cc1 | 209 | – |
| CC(C)C[C@H](NC(=O)[C@H](Cc1ccccc1)NC(=O)c1cnccn1)B(O)O | – | fold change (FC) (NCI-H3122 [9]): 1 |

Reference: ChEMBL document CHEMBL6103556, “Design and evaluation of anaplastic lymphoma kinase degraders using a covalent fumarate handle” (Bioorg Med Chem Lett, 2025)
